This passage reports IC50 results from BindingDB's records for doi:10.1021/jm00121a012 (Takeda Chemical Industries, 1989).

The target in this assay is Platelet-activating factor receptor (Oryctolagus cuniculus). The assay can be described thus: Inhibition of rabbit platelet aggregation induced by platelet activating factor (PAF).

For the compound `CCCCCCCCCCCCCCCCCCNC(=O)OCC(COC(=O)N(CC[N+]1(C)CCCC1)C(C)=O)OC` (stereo not drawn), half-maximal inhibition (IC50) required 1.1 µM.

For the compound `CCCCCCCCCCCCCCCCCCNC(=O)OCC(COC(=O)N(CC[N+](C)(C)C)C(=O)N1CCCC1)OC` (stereo not drawn), the IC50 (commonly the concentration at which inhibition is half-maximal) was 8.6 µM. The same measure for `CCCCCCCCCCCCCCCCCCOCC(COC(=O)N(CC[N+](C)(C)C)C(C)=O)OC(C)=O` (stereo not drawn): 0.88 µM; for `CCCCCCCCCCCCCCCCCCNC(=O)OCC(COC(=O)N(Cc1cccc[n+]1C)C(C)=O)OC` (stereo not drawn): 0.2 µM. With `CCCCCCCCCCCCCCCCCCNC(=O)OCC(COC(=O)N(Cc1csc[n+]1CC)C(C)=O)OC` (stereo not drawn) the figure was 0.092 µM. The same measure for `CCCCCCCCCCCCCCCCCCNC(=O)OCC(COC(=O)NCC[N+](C)(C)C)OC` (stereo not drawn): 14 µM; for `CCCCCCCCCCCCCCCCCCNC(=O)OCC(COC(=O)N(Cc1cccc[n+]1CCC)C(C)=O)OC` (stereo not drawn): 0.094 µM. In turn, `CCCCCCCCCCCCCCCCCCNC(=O)OCC(COC(=O)N(CC[N+](C)(C)C)C(C)=O)OC` (stereo not drawn) returned a half-inhibitory concentration (IC50) of 1.5 µM. Turning to `CCCCCCCCCCCCCCCCCCNC(=O)OCC(COC(=O)N(CC[N+](C)(C)C)C(=O)N(C)C)OC` (stereo not drawn), the IC50 came to 5.8 µM.

In turn, `CCCCCCCCCCCCCCCCCCNC(=O)OCC(COC(=O)N(CC[N+](C)(C)C)C(=O)CC)OC` (stereo not drawn) displayed an IC50 of 5.6 µM. The compound `CCCCCCCCCCCCCCCCCCNC(=O)OCC(COC(=O)N(CC[N+](C)(C)C)C(=O)OC)OC` (stereo not drawn) yielded a half-maximal inhibitory concentration (IC50) of 2.3 µM. With `CCCCCCCCCCCCCCCCCCNC(=O)OCC(COC(=O)N(CC[N+]1(C)CCOCC1)C(C)=O)OC` (stereo not drawn) the figure was 9.2 µM; with `CCCCCCCCCCCCCCCCCCNC(=O)OCC(COC(=O)N(CC[N+](C)(C)C)C(=O)NCCC)OC` (stereo not drawn), > 30 µM.

`CCCCCCCCCCCCCCCCCCNC(=O)OCC(COC(=O)N(C)CC[N+](C)(C)C)OC` (stereo not drawn) showed an IC50 of 8.2 µM.

Compound `CCCCCCCCCCCCCCCCCCNC(=O)OCC(COC(=O)N(CC[N+](C)(C)C)C(=O)CCC)OC` (stereo not drawn) showed an IC50 of 7.8 µM. `CCCCCCCCCCCCCCCCCCNC(=O)OCC(COC(=O)N(CCC[N+](C)(C)C)C(C)=O)OC` (stereo not drawn) came in with an IC50 of 8.5 µM. `CCCCCCCCCCCCCCCCCCNC(=O)OCC(COC(=O)N(Cc1csc[n+]1C)C(C)=O)OC` (stereo not drawn) came in with a half-maximal inhibitory concentration (IC50) of 0.1 µM.

Turning to `CCCCCCCCCCCCCCCCCCOCC(COC(=O)NCC[N+](C)(C)C)OC(C)=O` (stereo not drawn), the IC50 came out at 8.4 µM.
